{
  "source": "paper PMC3166647",
  "about": "(Analytical and bioanalytical chemistry, 2011)",
  "molecular_target": "T1, methionine aminopeptidase 1 (MetAP1) (Plasmodium yoelii, UniProt Q7RFT5)",
  "T1 sequence (Q7RFT5 1-491)": "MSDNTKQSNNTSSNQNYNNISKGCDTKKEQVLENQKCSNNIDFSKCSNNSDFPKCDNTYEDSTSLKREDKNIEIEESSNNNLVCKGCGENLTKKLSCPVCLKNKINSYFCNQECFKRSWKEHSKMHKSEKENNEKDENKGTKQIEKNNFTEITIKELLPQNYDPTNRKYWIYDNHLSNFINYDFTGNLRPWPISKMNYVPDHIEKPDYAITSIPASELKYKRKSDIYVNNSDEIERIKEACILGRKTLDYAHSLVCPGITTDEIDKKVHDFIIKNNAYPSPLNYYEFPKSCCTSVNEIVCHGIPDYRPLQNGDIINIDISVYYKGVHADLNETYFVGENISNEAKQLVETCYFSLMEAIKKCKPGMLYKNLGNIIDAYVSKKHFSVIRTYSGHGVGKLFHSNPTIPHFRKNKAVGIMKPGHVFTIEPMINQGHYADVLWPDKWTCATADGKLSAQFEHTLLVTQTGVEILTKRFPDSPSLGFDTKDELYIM",
  "assay": "competition ultrafiltration with HPLC-UV",
  "format": "binding",
  "conditions": "4 °C; competes with fragments 4-9",
  "data": [
    {"smiles": "CSCC[C@H](N)C(=O)O", "note": "[methionine]", "values": [
      {"measurement": "competition ultrafiltration with HPLC-UV", "value": "methionine was able to compete against lower-affinity ligands more efficiently than higher-affinity ligands"}
    ]}
  ]
}
